Key:
HUVECs = experiment: ALAMARBLUE proliferation assay in HUVECs; type: cell-based, human; conditions: for GI50: Homo sapiens, HUVEC, 48 h, 50% growth inhibitory concentration, alamarBlue
Procedure: (§1) Particularly, in a 96-well clear bottom black plate, cells (2,500 cells per well) were seeded in a total volume of 100 μL EGM-2. After 24 hours of incubation of the plate at 37° C. and 5% CO2, a DMSO solution of synthetic cremastranone (1) or SH-11052 (2) was added in the concentration range of 0.5 nM to 500 μM (final DMSO concentration=1%). The plate was then further incubated for 48 hours before adding 11.1 μL of ALAMARBLUE® reagent to each well. Four hours after the addition of ALAMARBLUE®, fluorescence readings with excitation and emission wavelengths of 560 nm and 590 nm, respectively, were taken and the data were analyzed in GraphPad Prism software (v. 6.0). Dose response curves were generated and the GI50 values were calculated using the following equation: Y=100/(1+10^(X−Log GI50)).
(§2) For proliferation assays, cells (2500 per well) were seeded in a 96-well clear bottom black polystyrene plate in a total volume of 100 μL. HUVECs and HRECs were grown in EGM-2 and CSC+ media respectively, while 92-1 and Y79 cells were maintained in RPMI+10% FBS, penicillin/streptomycin and RB medium (IMDM+10% FBS+penicillin/streptomycin+10 μg/mL insulin+55 μM β-mercaptoethanol) respectively. After 24 hours of incubation of the plate at 37° C., the compounds were dissolved in DMSO and added in the concentration range of 500 μM to 0.5 nM. The plate was then incubated at 37° C. and 5% CO2 conditions for 48 hours before adding 11.1 μL of alamar blue reagent for each well. Four hours after the addition of ALAMARBLUE® reagent, fluorescence readings with excitation and emission wavelengths of 560 nm and 590 nm respectively were taken and the data was analyzed in GraphPad Prism software. The dose response curves were generated and the GI50 values were calculated using the equation: Y=100/(1+10^(X−Log GI50)) (Table 1).

HRECs = experiment: ALAMARBLUE proliferation assay in HRECs; type: cell-based, human; conditions: for GI50: Homo sapiens, HREC, 50% growth inhibitory concentration, 48 hours, alamarBlue, read-out: GI50 HREC
Procedure: as §1, §2

[1] = tested on: Y-79 retinoblastoma cells; experiment: ALAMARBLUE proliferation assay in Y-79 retinoblastoma cells; type: cell-based; conditions: 50% growth inhibitory concentration, 48 hours
Procedure: as §2

[2] = tested on: 92-1 uveal melanoma cells; experiment: ALAMARBLUE proliferation assay in 92-1 uveal melanoma cells; type: cell-based; conditions: 50% growth inhibitory concentration, 48 hours, alamarBlue
Procedure: as §2

Row | SMILES | GI50 [1] [µM] | GI50 [2] [µM] | GI50 (HUVECs) [µM] | GI50 (HRECs) [µM] | in vitro anti-proliferative activity in HUVECs (HUVECs; result in words, FIGS. 6A, 6C) | in vitro anti-proliferative activity in HRECs (HRECs; result in words, FIGS. 6B, 6D, 14)
1 | COc1ccc(CCC(=O)c2c(O)cc(OC)c(OC)c2OC)cc1O [Compound 4a, 1-(6-hydroxy-2,3,4-trimethoxyphenyl)-3-(3′-hydroxy-4′-methoxyphenyl) propan-1-one] | 68 | > 100 | 102 | 68 |  | 
2 | C=C(Cc1ccc(OC)c(O)c1)C(=O)c1c(O)cc(OC)c(OC)c1OC [Compound 7, 1-(6-hydroxy-2,3,4-trimethoxyphenyl)-2-(3′-hydroxy-4′-methoxybenzyl)prop-2-en-1-one] | 8 | 17 | 1.4 | 10 |  | 
3 | COc1ccc(CC2COc3cc(OC)c(OC)c(OC)c3C2=O)cc1C(=O)O (stereo not drawn) [Compound 6f] | > 250 | > 250 | 92 | 131 |  | 
4 | COc1ccc(CN2CCc3cc(OC)c(OC)c(OC)c3C2=O)cc1OCc1ccccc1 [Compound 14, 2-(3-(Benzyloxy)-4-methoxybenzyl)-6,7,8-trimethoxy-3,4-dihydroisoquinolin-1(2H)-one] | > 500 | 6 | 71 | 103 |  | 
5 | COc1ccc(/C=C2\Cc3cc(OC)c(OC)c(OC)c3C2=O)cc1O [Compound 13, (E)-2-(3-hydroxy-4-methoxybenzylidene)-5,6,7-trimethoxy-2,3-dihydro-1H-inden-1-one] | 49 | 80 | 19 | 30 |  | 
6 | COc1ccc(CC2COc3cc(OC)c(OC)c(O)c3C2=O)cc1O (stereo not drawn) [Compound 8a] | > 100 | > 100 | 44 | > 100 |  | 
7 | COc1ccc(CC2(CO)COc3cc(OC)c(OC)c(OC)c3C2=O)cc1O (stereo not drawn) [Compound 5, 3-(3′-hydroxy-4′-methoxybenzyl)-3-(hydroxymethyl)-5,6,7-trimethoxychroman-4-one] | > 100 | > 100 | > 100 | > 100 |  | 
8 | COc1cc2c(c(OC)c1OC)C(=O)C(Cc1ccccc1)CO2 (stereo not drawn) [Compound 6b, 3-benzyl-5,6,7-trimethoxychroman-4-one] | > 100 | > 100 | > 100 | > 100 |  | 
9 | COc1ccc(CC2COc3cc(O)c(OC)c(O)c3C2=O)cc1O (racemic) [Compound 1, 5,7-dihydroxy-3-(3-hydroxy-4-methoxybenzyl)-6-methoxychroman-4-one] | 47 | 9.8 | 0.377 | 0.217 | demonstrated in vitro anti-proliferative activity | demonstrated in vitro anti-proliferative activity
10 | COc1ccc(CC2COc3cc(OC)c(OC)c(OC)c3C2=O)cc1O (stereo not drawn) [Compound 6a, 3-(3′-hydroxy-4′-methoxybenzyl)-5,6,7-trimethoxychroman-4-one] | > 100 | > 100 | > 100 | > 100 |  | 
11 | COc1ccc(CCC(=O)c2c(O)cc(OC)c(OC)c2OC)cc1OC [Compound 4c] | > 100 | > 100 | 74 | 123 |  | 
12 | COc1ccc(/C=C/C(=O)c2c(O)cc(OC)c(OC)c2OC)cc1OCc1ccccc1 [Compound 3a, (E)-3-(3′-benzyloxy-4′-methoxyphenyl)-1-(6-hydroxy-2,3,4-trimethoxyphenyl) prop-2-en-1-one] | > 100 | > 100 | 94 | > 100 |  | 

Now from value to molecule, other results behind:

Row | GI50 [1] [µM] | GI50 [2] [µM] | SMILES | GI50 (HUVECs) [µM] | GI50 (HRECs) [µM] | in vitro anti-proliferative activity in HUVECs (HUVECs; result in words, FIGS. 6A, 6C) | in vitro anti-proliferative activity in HRECs (HRECs; result in words, FIGS. 6B, 6D, 14)
13 | 23 | 55 | COc1cc(/C=C2\COc3cc(OC)c(OC)c(OC)c3C2=O)ccc1O [Compound 11e] | 6 | 4 |  | 
14 | 13.5 | 78.5 | COc1cc(OC)c2c(c1)OC/C(=C\c1ccc(OC)c(O)c1)C2=O [Compound 15a] | 17.7 | 37 |  | 
15 | 22 | 30 | COc1cc2c(c(OC)c1OC)C(=O)/C(=C/c1ccc(O)c(F)c1)CO2 [Compound 11p] | 9 | 19 |  | 
16 | > 500 | > 500 | COc1ccc(/C=C2\COc3cc(OC)c(OC)c(OC)c3C2=O)cc1OCC(=O)O [Compound 11m] | > 500 | > 500 |  | 
17 | 15 |  | COc1ccc(/C=C2\COc3cc(OC)c(OC)c(OC)c3C2=O)cc1OCc1ccccc1 [Compound 11b, (E)-3-(3′-benzyloxy-4′-methoxybenzylidene)-5,6,7-trimethoxychroman-4-one] | 4 | 6 |  | 
18 | 3.2 | 6 | COc1ccc(/C=C2\COc3cc(OC)c(OC)c(OC)c3C2=O)cc1OCCN1CCCC1 [Compound 11k, (E)-5,6,7-trimethoxy-3-(4-methoxy-3-(2-(pyrrolidin-1-yl)ethoxy)benzylidene)chroman-4-one] | 3.5 | 0.185 |  | 
19 | 3 | 3.2 | C=CCOc1cc(/C=C2\COc3cc(OC)c(OC)c(OC)c3C2=O)ccc1OC [Compound 11c, (E)-3-(3′-allyloxy-4′-methoxybenzylidene)-5,6,7-trimethoxychroman-4-one] | 11 | 4 |  | 
20 | 25 | 25 | COc1cccc(/C=C2\COc3cc(OC)c(OC)c(OC)c3C2=O)n1 [Compound 11f] | 16 | 17 |  | 
21 | 44 | 13 | COc1ccc(/C=C2\COc3cc(OC)c(OC)c(OC)c3C2=O)cc1[N+](=O)[O-] [Compound 11h] | 11 | 4 |  | 
22 | 21 | > 500 | COc1ccc(/C=C2\COc3cc(OC)c(OC)c(OC)c3C2=O)cc1OCC(=O)OC(C)(C)C [Compound 11l] | 27 | > 500 |  | 
23 | 6 | 11 | COc1ccc(/C=C2\COc3cc(OC)c(OC)c(O)c3C2=O)cc1O [Compound 11q] | 5.4 | 7 |  | 
24 | 154 | > 250 | COc1ccc(/C=C2\COc3cc(OC)c(OC)c(OC)c3C2=O)c(OC)c1OC [Compound 11w] | 45 | 91 |  | 
25 | 9 | 23 | COc1cc2c(c(OC)c1OC)C(=O)/C(=C/c1ccc([N+](=O)[O-])cc1)CO2 [Compound 11j] | 6 | 14 |  | 
26 | 9 | > 250 | COc1cc(/C=C2\COc3cc(OC)c(OC)c(OC)c3C2=O)cc(OC)c1OC [Compound 11u] | 10.4 | 16.6 |  | 
27 | 109 | > 250 | COc1cc2c(c(OC)c1OC)C(=O)/C(=C/c1ccc(OCc3ccccc3)c(OCc3ccccc3)c1)CO2 [Compound 11t] | 64 | 160 |  | 
28 | 10 | 7 | COc1ccc(/C=C2\COc3cc(OC)c(OC)c(OC)c3C2=O)cc1F [Compound 11s] | 7.6 | 3.2 |  | 
29 | 6 | > 100 | COC(=O)c1cc(/C=C2\COc3cc(OC)c(OC)c(OC)c3C2=O)ccc1OC [Compound 11r] | 3.2 | 5.5 |  | 
30 | > 500 | > 500 | COc1cc2c(c(OC)c1OC)C(=O)CCO2 [Compound 10a, 5,6,7-trimethoxychromanone] | > 100 | > 100 |  | 
31 | 39 | 23 | COc1cc(/C=C2\COc3cc(OC)c(OC)c(OC)c3C2=O)ccc1OCc1ccccc1 [Compound 11d] | 114 | 53 |  | 
32 | 18 | 31 | COc1cc2c(c(OC)c1OC)C(=O)/C(=C/c1cccc(Cl)c1Cl)CO2 [Compound 11v] | 10.4 | 25.6 |  | 
33 | 8 | 29 | COc1cc2c(c(OC)c1OC)C(=O)/C(=C/c1ccccc1[N+](=O)[O-])CO2 [Compound 11x] | 9 | 8.6 |  | 
34 | > 100 | > 100 | COc1c(O)cc2occ(Cc3ccccc3)c(=O)c2c1O [Compound 9b, 3-benzyl-5,7-dihydroxy-6-methoxy-4H-chromen-4-one] | > 100 | > 100 |  | 
35 | 44 | 0.22 | COc1ccc(/C=C2\COc3cc(OC)c(OC)c(OC)c3C2=O)cc1O [Compound 11a, (E)-3-(3′-hydroxy-4′-methoxybenzylidene)-5,6,7-trimethoxychroman-4-one] | 8 | 46 |  | 

Source: US10738024B2, “Compounds for treatment of angiogenesis-mediated diseases” (Indiana University Research and Technology Corporation, priority 2013, dated 2020)
